{"source": "patent US10526341B2", "about": "“Thienopyrimidines and uses thereof” (Memorial Sloan-Kettering Cancer Center, priority 2014, dated 2020)", "key": {"[1]": {"experiment": "Pharmacokinetic profile of MI-2-2, blood and pons by LC-MS", "assay_type": "in vivo, mice", "settings": "30 mg/kg systemic MI-2-2", "experimental": "(§1) Cell proliferation and apoptosis were assessed by immunofluorescence for Ki67 and TUNEL assays. After staining, Ki67 and TUNEL positive cells were manually counted to calculate a percentage of positive nuclei (see, e.g., FIG. 33). The pharmacokinetic profile of MI-2-2 was assessed by treating animals with 30 mg/kg and 60 mg/kg IP MI-2-2. Tail vein blood sampling and extraction of the pons was performed in animals at multiple time points and samples analyzed by LC-MS to generate a curve.\nDIPIV xenografts were generated and are monitored monthly for BLI signal prior to randomization into treatment groups."}, "Glioblastoma 040114 [2]": {"test_system": "Glioblastoma 040114", "experiment": "Ki67 immunofluorescence proliferation assay", "assay_type": "cell-based, human", "settings": "pre-treatment 56.0, *p < 0.05", "experimental": "as §1"}, "SU-DIPGIV [3]": {"test_system": "SU-DIPGIV", "experiment": "Ki67 immunofluorescence proliferation assay", "assay_type": "cell-based, human", "settings": "pre-treatment 34.9, *p < 0.05", "experimental": "as §1"}, "Astrocytes [4]": {"test_system": "Astrocytes", "experiment": "Ki67 immunofluorescence proliferation assay", "assay_type": "cell-based, human", "settings": "pre-treatment 2.4", "experimental": "as §1"}, "Glioblastoma 040811 [5]": {"test_system": "Glioblastoma 040811", "experiment": "Ki67 immunofluorescence proliferation assay", "assay_type": "cell-based, human", "settings": "pre-treatment 28.4", "experimental": "as §1"}, "NPC [6]": {"test_system": "NPC", "experiment": "Ki67 immunofluorescence proliferation assay", "assay_type": "cell-based, human", "settings": "pre-treatment 10.6", "experimental": "as §1"}, "Fibroblasts [7]": {"test_system": "Fibroblasts", "experiment": "Ki67 immunofluorescence proliferation assay", "assay_type": "cell-based, human", "settings": "pre-treatment 29.6", "experimental": "as §1"}, "Glioblastoma 050715 [8]": {"test_system": "Glioblastoma 050715", "experiment": "Ki67 immunofluorescence proliferation assay", "assay_type": "cell-based, human", "settings": "pre-treatment 11.9", "experimental": "as §1"}, "Glioblastoma 030613 [9]": {"test_system": "Glioblastoma 030613", "experiment": "Ki67 immunofluorescence proliferation assay", "assay_type": "cell-based, human", "settings": "pre-treatment 30.4, *p < 0.05", "experimental": "as §1"}, "Glioblastoma 070909 [10]": {"test_system": "Glioblastoma 070909", "experiment": "Ki67 immunofluorescence proliferation assay", "assay_type": "cell-based, human", "settings": "pre-treatment 18.2, *p < 0.05", "experimental": "as §1"}, "SU-DIPGVI [11]": {"test_system": "SU-DIPGVI", "experiment": "Ki67 immunofluorescence proliferation assay", "assay_type": "cell-based, human", "settings": "pre-treatment 26.5, *p < 0.05", "experimental": "as §1"}, "040114 xenografts": {"test_system": "040114 xenografts", "experiment": "GBM 040114 xenografts, bioluminescence imaging", "assay_type": "in vivo, mice", "settings": "40 mg/kg BID, after three weeks", "experimental": "(§2) DIPG and glioblastoma cell lines were used to generate xenografts in NSG immunocompromised mice for in vivo testing. All lines used for xenografting were transfected lentiviral vectors encoding firefly luciferase to enable bioluminescence imaging (BLI). For DIPG xenografts, 100,000 DIGIV or DIPGVI cells were stereotactically injected into the pons of cold anesthetized P6 pups by transcutaneous injection. For GBM xenografts, 500,000 cells (030613 and 040114) were injected stereotactically into the striatum of 6 week old mice anesthetized with ketamine/xylazine cocktail. […] BLI was performed every week during treatment.\n(§3) BLI was performed using the IVIS Lumina II system. D-Luciferin (10 uL of 15 mg/mL solution was instilled by retro-orbital injection in mice under […] anesthesia and 5 minute exposures were collected. Fold change over baseline pre-randomization imaging was calculated."}, "DIPGVI xenografts": {"test_system": "DIPGVI xenografts", "experiment": "DIPGVI xenografts, bioluminescence imaging", "assay_type": "in vivo, mice", "settings": "60 mg/kg daily intraperitoneal, at 4 weeks", "experimental": "as §2, §3"}, "Glioblastoma 040114 [12]": {"test_system": "Glioblastoma 040114", "experiment": "alamarBlue cell viability, 12 point dose response, seven days", "assay_type": "cell-based, human", "settings": "040114, seven days", "experimental": "(§4) Sensitivity to MI-2-2 was assessed by a 12 point dose response curve calculated after seven days of drug exposure and alamarBlue cell viability assay. Multiple patient tumor-derived DIPG (DIPGIV, DIPGVI, MSK-1, Peds8) and Glioblastoma (070909, 030613, 050715, 042315, 040811, 040114) were tested, with fibroblasts (MRCS), hES derived NPCs and astrocytes serving as controls (see FIGS. 29-33). Dose-response curves for the treatment of NPC, DIPGIV, and DIPGVI cell lines with MI-2-2, Panobinostat, and EPZ6438 are shown in FIG. 29."}, "SU-DIPGIV [13]": {"test_system": "SU-DIPGIV", "experiment": "alamarBlue cell viability, 12 point dose response, seven days", "assay_type": "cell-based, human", "experimental": "as §4"}, "Astrocytes [14]": {"test_system": "Astrocytes", "experiment": "alamarBlue cell viability, 12 point dose response, seven days", "assay_type": "cell-based, human", "settings": "sub-micromolar doses", "experimental": "as §4"}, "Glioblastoma 040811 [15]": {"test_system": "Glioblastoma 040811", "experiment": "alamarBlue cell viability, 12 point dose response, seven days", "assay_type": "cell-based, human", "settings": "040811, seven days", "experimental": "as §4"}, "Glioblastoma 050715 [16]": {"test_system": "Glioblastoma 050715", "experiment": "alamarBlue cell viability, 12 point dose response, seven days", "assay_type": "cell-based, human", "settings": "050715, seven days", "experimental": "as §4"}, "Glioblastoma 030613 [17]": {"test_system": "Glioblastoma 030613", "experiment": "alamarBlue cell viability, 12 point dose response, seven days", "assay_type": "cell-based, human", "settings": "030613, seven days", "experimental": "as §4"}, "hES derived NPCs": {"test_system": "hES derived NPCs", "experiment": "alamarBlue cell viability, 12 point dose response, seven days", "assay_type": "cell-based, human", "settings": "sub-micromolar doses", "experimental": "as §4"}, "Glioblastoma 070909 [18]": {"test_system": "Glioblastoma 070909", "experiment": "alamarBlue cell viability, 12 point dose response, seven days", "assay_type": "cell-based, human", "settings": "070909, seven days", "experimental": "as §4"}, "SU-DIPGVI [19]": {"test_system": "SU-DIPGVI", "experiment": "alamarBlue cell viability, 12 point dose response, seven days", "assay_type": "cell-based, human", "experimental": "as §4"}, "fibroblasts (MRCS) [20]": {"test_system": "fibroblasts (MRCS)", "experiment": "alamarBlue cell viability, 12 point dose response, seven days", "assay_type": "cell-based, human", "settings": "sub-micromolar doses", "experimental": "as §4"}, "042314": {"test_system": "042314", "experiment": "alamarBlue cell viability, 12 point dose response, seven days", "assay_type": "cell-based, human", "settings": "042314, seven days"}, "[21]": {"test_system": "normal neural precursors (NPC)", "experiment": "MI-2-2 dose-response curve, cell survival (FIG. 19H)", "assay_type": "cell-based, human", "experimental": "(§5) FIG. 19 depicts the chemical screen of the transformed NPCs. FIG. 19A is a schematic representation of the screening strategy. A mixture of GFP-labeled normal NPCs and RFP-labeled P5K cells in a 1:3 ratio were plated into 96-well plates and each compound in the library was added in a 2-fold serial dilution for a total of 8 doses. […] Error bars indicate S.D. (n=4). […] Intracranial growth of Luciferase-labeled P5K cells was measured by quantitative in vivo bioluminescence imaging. Values indicate fold change of luminescence before and after the treatment. […] Cells were treated with MI-2 for 7 days and the number of viable cells was counted by trypan-blue staining (n=4). Error bars in panels C-D, E, F and G indicate mean±S.D. *, p<0.05; **, p<0.01. NS, Not Significant. FIG. 19H represents a dose-response curve of MI-2-2.\n(§6) The normal neural precursors are being analyzed for proof of maintained phenotype and differentiation ability, in further support of the safety profile of the drug used."}, "[22]": {"test_system": "DIPG patient-derived tumor line", "experiment": "MI-2-2 dose-response curve, cell survival (FIG. 19H)", "assay_type": "cell-based, human", "experimental": "as §5, §6"}, "fibroblasts (MRCS) [23]": {"test_system": "fibroblasts (MRCS)", "experiment": "MI-2-2 dose-response curve, cell survival (FIG. 19H)", "assay_type": "cell-based, human", "experimental": "as §5, §6"}, "SU-DIPGIV [24]": {"test_system": "SU-DIPGIV", "experiment": "TUNEL apoptosis assay", "assay_type": "cell-based, human", "settings": "pre-treatment 7.6", "experimental": "as §1"}, "NPC [25]": {"test_system": "NPC", "experiment": "TUNEL apoptosis assay", "assay_type": "cell-based, human", "settings": "pre-treatment 3.8", "experimental": "as §1"}, "Fibroblasts [26]": {"test_system": "Fibroblasts", "experiment": "TUNEL apoptosis assay", "assay_type": "cell-based, human", "settings": "pre-treatment 0.4", "experimental": "as §1"}, "SU-DIPGVI [27]": {"test_system": "SU-DIPGVI", "experiment": "TUNEL apoptosis assay", "assay_type": "cell-based, human", "settings": "pre-treatment 14.3", "experimental": "as §1"}}, "note": "“Also recorded” adds a separate entry of the source.", "data": [{"smiles": "CC1(C)CN=C(N2CCN(c3ncnc4sc(CC(F)(F)F)cc34)CC2)S1", "note": "[MI-2-2]", "values": [{"measurement": "In vivo blood-brain barrier (BBB) penetration", "setting": "[1]", "result": "penetration was demonstrated"}, {"measurement": "maintenance of therapeutic levels", "setting": "[1]", "result": "> 6", "unit": "h"}, {"measurement": "Ki67 % post-treatment", "setting": "Glioblastoma 040114 [2]", "result": "56.0, 36.1* %"}, {"measurement": "Ki67 % post-treatment", "setting": "SU-DIPGIV [3]", "result": "34.9, 16.0* %"}, {"measurement": "Ki67 % post-treatment", "setting": "Astrocytes [4]", "result": "2.4, 4.3%"}, {"measurement": "Ki67 % post-treatment", "setting": "Glioblastoma 040811 [5]", "result": "28.4, 22.5%"}, {"measurement": "Ki67 % post-treatment", "setting": "NPC [6]", "result": "10.6, 12.1%"}, {"measurement": "Ki67 % post-treatment", "setting": "Fibroblasts [7]", "result": "29.6, 27.5%"}, {"measurement": "Ki67 % post-treatment", "setting": "Glioblastoma 050715 [8]", "result": "11.9, 7.8%"}, {"measurement": "Ki67 % post-treatment", "setting": "Glioblastoma 030613 [9]", "result": "30.4, 16.2* %"}, {"measurement": "Ki67 % post-treatment", "setting": "Glioblastoma 070909 [10]", "result": "18.2, 10.8* %"}, {"measurement": "Ki67 % post-treatment", "setting": "SU-DIPGVI [11]", "result": "26.5, 14.4* %"}, {"measurement": "BLI signal fold change in 040114 xenografts", "setting": "040114 xenografts", "result": "significant reduction in signal fold change"}, {"measurement": "BLI signal in DIPGVI xenografts", "setting": "DIPGVI xenografts", "result": "no significant difference in BLI signal"}, {"measurement": "IC50", "setting": "Glioblastoma 040114 [12]", "result": 36.4, "unit": "nM"}, {"measurement": "IC50", "setting": "SU-DIPGIV [13]", "result": 93.4, "unit": "nM"}, {"measurement": "depletion of astrocytes", "setting": "Astrocytes [14]", "result": "not depleted at sub-micromolar doses"}, {"measurement": "IC50", "setting": "Glioblastoma 040811 [15]", "result": 113, "unit": "nM"}, {"measurement": "IC50", "setting": "Glioblastoma 050715 [16]", "result": 83.4, "unit": "nM"}, {"measurement": "IC50", "setting": "Glioblastoma 030613 [17]", "result": 9.51, "unit": "nM"}, {"measurement": "depletion of NPCs", "setting": "hES derived NPCs", "result": "not depleted at sub-micromolar doses"}, {"measurement": "IC50", "setting": "Glioblastoma 070909 [18]", "result": 13.5, "unit": "nM"}, {"measurement": "IC50", "setting": "SU-DIPGVI [19]", "result": 121, "unit": "nM"}, {"measurement": "depletion of fibroblasts", "setting": "fibroblasts (MRCS) [20]", "result": "not depleted at sub-micromolar doses"}, {"measurement": "IC50", "setting": "042314", "result": 26.1, "unit": "nM"}, {"measurement": "survival of normal neural precursors (NPC)", "setting": "[21]", "result": "highly resistant; also recorded: minimal impact on the survival"}, {"measurement": "IC50", "setting": "[22]", "result": 10, "unit": "nM"}, {"measurement": "survival of fibroblasts (MRCS)", "setting": "fibroblasts (MRCS) [23]", "result": "highly resistant; also recorded: minimal impact on the survival"}, {"measurement": "TUNEL % post-treatment", "setting": "SU-DIPGIV [24]", "result": "7.6, 21.4%"}, {"measurement": "TUNEL % post-treatment", "setting": "NPC [25]", "result": "3.8, 4.0%"}, {"measurement": "TUNEL % post-treatment", "setting": "Fibroblasts [26]", "result": "0.4, 0.0%"}, {"measurement": "TUNEL % post-treatment", "setting": "SU-DIPGVI [27]", "result": "14.3, 17.9%"}]}]}
